# pIC50: −log10 of the molar value. Calls of active or inactive are those of the source. The rule behind the calls is not given here.
# Key:
# [1] = Acute toxicity in Kunming mouse assessed as pathological changes in heart at 600 mg/kg, ip measured after 24 hrs by H and E staining analysis; format: organism-based; conditions: in vivo
# [2] = tested on: U-87MG ATCC; test: Downregulation of CDK6 gene expression in human U-87 MG cells at 0.075 to 1.2 uM measured after 72 hrs by western blot analysis; format: functional, cell-based; conditions: dose 0.075-1.2 µM
# [3] = tested on: U-87MG ATCC; test: Antitumor activity against human U-87 MG cells xenografted in BALB/c mouse assessed as decrease in tumor weight at 10 mg/kg,ip bid for 1 month; format: functional, organism-based; conditions: time 1.0 months
# [4] = Cmax in Sprague-Dawley rat brain at 100 mg/kg, ip and measured upto 240 mins by LC-MS analysis; format: ADME, organism-based; set-up: time < 240 min, dose 100 mg/kg, route ip
# [5] = tested on: U-251; test: Induction of apoptosis in human U-251 cells assessed as early apoptotic cells at 0.375 uM incubated for 72 hrs by Annexin V-FITC/PI staining based flow cytometry method (Rvb =1.96 %); format: functional
# [6] = Ratio of drug level in Sprague-Dawley rat brain to plasma at 100 mg/kg, ip measured after 240 mins by LC-MS analysis; format: ADME, organism-based; conditions: read-out: logBB (converted)
# [7] = tested on: U-87MG ATCC; test: Induction of apoptosis in human U-87 MG cells assessed as morphological changes at 0.075 to 1.20 uM measured after 72 hrs by Giemsa staining based microscopic analysis; format: functional, cell-based; conditions: dose 0.075-1.2 µM
# [8] = tested on: U-87MG ATCC; test: Downregulation of cyclin D1 gene expression in human U-87 MG cells at 0.075 to 1.2 uM measured after 72 hrs by western blot analysis; format: functional, cell-based; conditions: dose 0.075-1.2 µM
# [9] = tested on: C6; test: Antiproliferative activity against rat C6 cells assessed as inhibition of cell proliferation measured after 72 hrs by CCK8 assay; format: functional, cell-based; conditions: C6, 72 h
# [10] = tested on: U-87MG ATCC; test: Induction of apoptosis in human U-87 MG cells assessed as enlargement of intracellular space at 0.075 to 1.20 uM measured after 72 hrs by Giemsa staining based microscopic analysis; format: functional, cell-based; conditions: dose 0.075-1.2 µM
# [11] = tested on: U-87MG ATCC; test: Antiproliferative activity against human U-87 MG cells assessed as release of LDH in supernatant and measured after 72 hrs by microplate reader assay; format: functional, cell-based; conditions: DDE = dose-dependent effect
# [12] = Induction of apoptosis in human U-87 MG cells assessed as early apoptotic cells at 1.20 uM incubated for 72 hrs by Annexin V-FITC/PI staining based flow cytometry method (reference value: 2.53 %); format: functional, U-87MG ATCC; conditions: dose 1.2 µM
# [13] = Cmax in Sprague-Dawley rat plasma at 100 mg/kg, ip and measured upto 240 mins by LC-MS analysis; format: ADME, organism-based; set-up: dose 100 mg/kg, time < 240 min, route ip
# [14] = tested on: U-251; test: Antiproliferative activity against human U-251 cells assessed as reduction in cell proliferation at 0.075 to 1.2 uM and measured after 24 hrs by EdU incorporation based assay; format: functional; conditions: dose 0.075-1.2 µM, DDE = dose-dependent effect
# [15] = Antitumor activity against human U-87 MG cells xenografted in BALB/c mouse assessed as tumor growth inhibition at 10 mg/kg,ip bid for 1 month; format: functional, U-87MG ATCC; conditions: 730 h, time 1 months, read-out: TGI
# [16] = Tmax in Sprague-Dawley rat brain at 100 mg/kg, ip and measured upto 240 mins by LC-MS analysis; format: ADME, organism-based
# [17] = Tmax in Sprague-Dawley rat plasma at 100 mg/kg, ip and measured upto 240 mins by LC-MS analysis; format: ADME, organism-based
# [18] = tested on: U-251; test: Induction of apoptosis in human U-251 cells assessed as late apoptotic cells at 0.375 uM incubated for 72 hrs by Annexin V-FITC/PI staining based flow cytometry method (Rvb =1.31 %); format: functional
# [19] = tested on: U-251; test: Induction of apoptosis in human U-251 cells assessed as viable cells at 1.50 uM incubated for 72 hrs by Annexin V-FITC/PI staining based flow cytometry method (reference value: 96.22 %); format: functional; conditions: read-out: Activity
# [20] = Induction of apoptosis in human U-87 MG cells assessed as necrotic cells at 0.30 uM incubated for 72 hrs by Annexin V-FITC/PI staining based flow cytometry method (reference value: 0.21 %); format: functional, U-87MG ATCC; conditions: dose 0.3 µM
# [21] = tested on: U-87MG ATCC; test: Antimigratory activity in human U-87 MG cells assessed as inhibition of cell migration by measuring wound closure at 0.125 to 0.50 uM and measured after 24 hrs by transwell migration assay; format: functional, cell-based; conditions: dose 0.125-0.5 µM, DDE = dose-dependent effect
# [22] = tested on: U-251; test: Induction of apoptosis in human U-251 cells assessed as viable cells at 6 uM incubated for 72 hrs by Annexin V-FITC/PI staining based flow cytometry method (reference value: 96.22 %); format: functional; conditions: read-out: Activity
# [23] = Acute toxicity in Kunming mouse assessed as pathological changes in spleen at 600 mg/kg, ip measured after 24 hrs by H and E staining analysis; format: organism-based; conditions: in vivo
# [24] = tested on: U-251; test: Induction of cell cycle arrest in human U-251 cells assessed as accumulation at G0/G1 phase at 0.75 to 3 uM and measured after 72 hrs by flow cytometry; format: functional, cell-based; conditions: dose 0.75-3 µM, DDE = dose-dependent effect
# [25] = tested on: U-251; test: Induction of apoptosis in human U-251 cells assessed as necrotic cells at 0.375 uM incubated for 72 hrs by Annexin V-FITC/PI staining based flow cytometry method (Rvb =0.51 %); format: functional
# [26] = tested on: U-251; test: Induction of apoptosis in human U-251 cells assessed as early apoptotic cells at 1.50 uM incubated for 72 hrs by Annexin V-FITC/PI staining based flow cytometry method (Rvb =1.96 %); format: functional; conditions: dose 1.5 µM
# [27] = tested on: U-251; test: Induction of apoptosis in human U-251 cells assessed as decrease in cell size at 0.375 to 6 uM measured after 72 hrs by Giemsa staining based microscopic analysis; format: functional; conditions: dose 0.375-6 µM
# [28] = tested on: U-87MG ATCC; test: Antiinvasive activity against human U-87 MG cells assessed as inhibition of cell invasion at 0.125 to 0.50 uM and measured after 24 hrs by transwell invasion assay; format: functional, cell-based; conditions: dose 0.125-0.5 µM, DDE = dose-dependent effect
# [29] = Induction of apoptosis in human U-87 MG cells assessed as late apoptotic cells at 1.20 uM incubated for 72 hrs by Annexin V-FITC/PI staining based flow cytometry method (reference value: 0.42 %); format: functional, U-87MG ATCC; conditions: dose 1.2 µM
# [30] = tested on: U-251; test: Induction of apoptosis in human U-251 cells assessed as enlargement of intracellular space at 0.375 to 6 uM measured after 72 hrs by Giemsa staining based microscopic analysis; format: functional, cell-based; conditions: dose 0.375-6 µM
# [31] = Acute toxicity in Kunming mouse assessed as pathological changes in kidney at 600 mg/kg, ip measured after 24 hrs by H and E staining analysis; format: organism-based; conditions: in vivo
# [32] = tested on: U-251; test: Downregulation of pRb gene expression in human U-251 cells at 0.075 to 1.2 uM measured after 72 hrs by western blot analysis; format: functional, cell-based; conditions: dose 0.075-1.2 µM
# [33] = tested on: U-251; test: Induction of apoptosis in human U-251 cells assessed as necrotic cells at 6 uM incubated for 72 hrs by Annexin V-FITC/PI staining based flow cytometry method (Rvb =0.51 %); format: functional
# [34] = Acute toxicity in Kunming mouse assessed as pathological changes in lung at 600 mg/kg, ip measured after 24 hrs by H and E staining analysis; format: organism-based; conditions: in vivo
# [35] = tested on: U-87MG ATCC; test: Induction of apoptosis in human U-87 MG cells assessed as formation of spindle shaped cells at 0.075 to 1.20 uM measured after 72 hrs by Giemsa staining based microscopic analysis; format: functional, cell-based; conditions: dose 0.075-1.2 µM
smiles,measurement,setting,value
COCCN1CCN(c2ccc(F)cc2C(=O)Nc2ccc(CNC(=O)OCc3cccnc3)cc2)CC1,Activity,[1],Non-Toxic
same,Activity,[2],Active
same,Activity,[3],Active
same,Cmax,[4],92.5 µg/mL
same,Activity,[5],1.9%
same,Kp at 4 h,[6],1.07
same,Activity,[7],Active
same,Activity,[8],Active
same,pIC50,[9],6.82
same,Activity,[10],Active
same,Activity,[11],Dde
same,Activity,[12],17.92%
same,Cmax,[13],71.7 µg/mL
same,Activity,[14],Dde
same,inhibition in vivo at 10 mg/kg,[15],70.5%
same,Tmax,[16],30 min
same,Tmax,[17],30 min
same,Activity,[18],1.61%
same,viability at 1.5 µM,[19],93.7%
same,Activity,[20],0.34%
same,Activity,[21],Dde
same,viability at 6 µM,[22],86.8%
same,Activity,[23],Non-Toxic
same,Activity,[24],Dde
same,Activity,[25],0.53%
same,Activity,[26],2.9%
same,Activity,[27],Active
same,Activity,[28],Dde
same,Activity,[29],9.97%
same,Activity,[30],Active
same,Activity,[31],Non-Toxic
same,Activity,[32],Active
same,Activity,[33],2.63%
same,Activity,[34],Non-Toxic
same,Activity,[35],Active

# From ChEMBL document CHEMBL5131385, “Novel piperazine based benzamide derivatives as potential anti-glioblastoma agents inhibiting cell proliferation and cell cycle progression” (Eur J Med Chem, 2022)
